In the CheMixHub viscosity set:
± gives the uncertainty stated by the source.

Test: xn = mol fraction of the nth substance listed

NC1CCCCC1 + CCCCO
viscosity [mPa·s], 101 kPa
Details	293.15 K	298.15 K	303.15 K
x1 = 0.0515	2.935 ± 0.061	2.587 ± 0.054	2.27 ± 0.047
x1 = 0.0767	–	2.558 ± 0.029	–
x1 = 0.1008	2.906 ± 0.06	2.563 ± 0.053	2.26 ± 0.047
x1 = 0.147	2.891 ± 0.06	2.549 ± 0.053	2.24 ± 0.046
x1 = 0.1574	–	2.555 ± 0.029	–
x1 = 0.2004	2.886 ± 0.06	2.545 ± 0.053	2.236 ± 0.046
x1 = 0.2426	–	2.564 ± 0.029	–
x1 = 0.2992	2.897 ± 0.06	2.547 ± 0.053	2.233 ± 0.046
x1 = 0.3325	–	2.574 ± 0.03	–
x1 = 0.4007	2.882 ± 0.06	2.533 ± 0.053	2.216 ± 0.046
x1 = 0.4277	–	2.549 ± 0.029	–
x1 = 0.4475	2.868 ± 0.059	2.523 ± 0.052	–
x1 = 0.4971	2.829 ± 0.059	2.48 ± 0.051	2.172 ± 0.045
x1 = 0.5285	–	2.481 ± 0.029	–
x1 = 0.5421	2.784 ± 0.058	2.442 ± 0.051	2.142 ± 0.044
x1 = 0.6078	2.701 ± 0.056	2.387 ± 0.05	2.095 ± 0.044
x1 = 0.6355	–	2.379 ± 0.028	–
x1 = 0.7051	2.558 ± 0.053	2.259 ± 0.047	1.991 ± 0.042
x1 = 0.7493	–	2.248 ± 0.026	–
x1 = 0.7941	2.419 ± 0.05	2.142 ± 0.045	1.893 ± 0.04
x1 = 0.846	2.344 ± 0.049	2.08 ± 0.043	1.842 ± 0.038
x1 = 0.8706	–	2.062 ± 0.024	–
x1 = 0.8879	2.295 ± 0.048	2.039 ± 0.043	1.81 ± 0.038
x1 = 0.9384	2.216 ± 0.046	1.973 ± 0.041	1.751 ± 0.037

ClC=C(Cl)Cl + COc1ccccc1
303.15 K, 101.3 kPa
Details	viscosity [mPa·s]
x2 = 0.1234	0.523 ± 0.009
x2 = 0.1791	0.541 ± 0.009
x2 = 0.2335	0.561 ± 0.009
x2 = 0.2818	0.577 ± 0.01
x2 = 0.4018	0.623 ± 0.01
x2 = 0.5204	0.672 ± 0.011
x2 = 0.5501	0.682 ± 0.011
x2 = 0.648	0.73 ± 0.012
x2 = 0.7243	0.765 ± 0.012
x2 = 0.8135	0.814 ± 0.013

O=C1CCCC1 + Clc1ccccc1
298.15 K, 101 kPa
Details	viscosity [mPa·s]
x2 = 0.0165	1.122 ± 0.0079
x2 = 0.0498	1.117 ± 0.0079
x2 = 0.1006	1.108 ± 0.0079
x2 = 0.1542	1.097 ± 0.0078
x2 = 0.2087	1.084 ± 0.0077
x2 = 0.266	1.068 ± 0.0077
x2 = 0.3245	1.05 ± 0.0076
x2 = 0.3841	1.023 ± 0.0075
x2 = 0.4488	0.993 ± 0.0073
x2 = 0.5148	0.959 ± 0.0072
x2 = 0.5836	0.92 ± 0.007
x2 = 0.6542	0.882 ± 0.0068
x2 = 0.739	0.835 ± 0.0066
x2 = 0.8057	0.802 ± 0.0065
x2 = 0.8869	0.769 ± 0.0063
x2 = 0.9704	0.745 ± 0.0062

ClC=C(Cl)Cl + CCO
viscosity [mPa·s], 101.33 kPa
Details	x2 = 0.15	x2 = 0.3	x2 = 0.45	x2 = 0.6	x2 = 0.75	x2 = 0.9
293.15 K	0.6368 ± 0.012	0.7027 ± 0.013	0.7685 ± 0.014	0.8344 ± 0.015	0.9003 ± 0.016	0.9601 ± 0.017
303.15 K	0.59 ± 0.011	0.6477 ± 0.012	0.7071 ± 0.013	0.765 ± 0.014	0.8177 ± 0.015	0.8581 ± 0.015
313.15 K	0.521 ± 0.01	0.569 ± 0.011	0.6186 ± 0.012	0.6692 ± 0.012	0.7193 ± 0.013	0.7593 ± 0.014

O=C1CCCC1 + CCCCN
303.15 K, 101.33 kPa
Details	viscosity [mPa·s]
x2 = 0.0957	1.45 ± 0.04
x2 = 0.2075	1.902 ± 0.052
x2 = 0.3126	2.204 ± 0.06
x2 = 0.4731	2.34 ± 0.064
x2 = 0.5364	2.252 ± 0.062
x2 = 0.6816	1.904 ± 0.052
x2 = 0.7758	1.552 ± 0.043
x2 = 0.8894	1.073 ± 0.03

CC(CCO)CC(C)(C)C (stereo not given) + CCOC(C)=O
viscosity [mPa·s], 101.33 kPa
Details	x2 = 0.1539	x2 = 0.2904	x2 = 0.4122	x2 = 0.5219	x2 = 0.6208	x2 = 0.7106	x2 = 0.7925	x2 = 0.8677	x2 = 0.9364
298.15 K	5.471 ± 0.23	3.367 ± 0.15	2.072 ± 0.095	1.443 ± 0.068	1.075 ± 0.053	0.879 ± 0.044	0.672 ± 0.035	0.514 ± 0.028	0.486 ± 0.027
303.15 K	4.696 ± 0.2	2.968 ± 0.13	1.837 ± 0.085	1.305 ± 0.062	0.975 ± 0.048	0.789 ± 0.04	0.631 ± 0.034	0.526 ± 0.029	0.475 ± 0.027
308.15 K	4.016 ± 0.18	2.452 ± 0.11	1.646 ± 0.077	1.181 ± 0.057	0.934 ± 0.047	0.724 ± 0.038	0.586 ± 0.032	0.495 ± 0.028	0.439 ± 0.025

ClC=C(Cl)Cl + CC(C)(C)O
303.15 K, 101.3 kPa
Details	viscosity [mPa·s]
x1 = 0.1042	1.951 ± 0.025
x1 = 0.2103	1.329 ± 0.017
x1 = 0.3164	1.018 ± 0.014
x1 = 0.4143	0.856 ± 0.012
x1 = 0.5147	0.758 ± 0.01
x1 = 0.6204	0.689 ± 0.01
x1 = 0.7102	0.648 ± 0.009
x1 = 0.8036	0.608 ± 0.009
x1 = 0.9088	0.562 ± 0.008

ClC=C(Cl)Cl + ClC(Cl)(Cl)Cl
303.15 K, 101.33 kPa
Details	viscosity [mPa·s]
x1 = 0.2969	0.699 ± 0.1
x1 = 0.7481	0.555 ± 0.1
x1 = 0.7605	0.551 ± 0.1
x1 = 0.8498	0.539 ± 0.1
x1 = 0.9286	0.526 ± 0.1

ClC=C(Cl)Cl + CC#N
Details	viscosity [mPa·s]
298.15 K, 101 kPa, x1 = 0.0501	0.358 ± 0.056
298.15 K, 101 kPa, x1 = 0.099	0.373 ± 0.058
298.15 K, 101 kPa, x1 = 0.2003	0.406 ± 0.061
298.15 K, 101 kPa, x1 = 0.3001	0.434 ± 0.064
298.15 K, 101 kPa, x1 = 0.3984	0.461 ± 0.068
298.15 K, 101 kPa, x1 = 0.4976	0.485 ± 0.07
298.15 K, 101 kPa, x1 = 0.5968	0.504 ± 0.072
298.15 K, 101 kPa, x1 = 0.7206	0.526 ± 0.075
298.15 K, 101 kPa, x1 = 0.7798	0.532 ± 0.075
298.15 K, 101 kPa, x1 = 0.9038	0.541 ± 0.076
298.15 K, 101 kPa, x2 = 0.0708	0.524 ± 0.005
298.15 K, 101 kPa, x2 = 0.1846	0.515 ± 0.005
298.15 K, 101 kPa, x2 = 0.3572	0.494 ± 0.005
298.15 K, 101 kPa, x2 = 0.4854	0.471 ± 0.005
298.15 K, 101 kPa, x2 = 0.5616	0.458 ± 0.005
298.15 K, 101 kPa, x2 = 0.6719	0.433 ± 0.005
298.15 K, 101 kPa, x2 = 0.775	0.403 ± 0.004
298.15 K, 101 kPa, x2 = 0.9121	0.369 ± 0.004
303.15 K, 101.32 kPa, x2 = 0.0893	0.5209 ± 0.0072
303.15 K, 101.32 kPa, x2 = 0.1803	0.5171 ± 0.0071
303.15 K, 101.32 kPa, x2 = 0.2502	0.5072 ± 0.0071
303.15 K, 101.32 kPa, x2 = 0.3697	0.4877 ± 0.0069
303.15 K, 101.32 kPa, x2 = 0.5273	0.4539 ± 0.0066
303.15 K, 101.32 kPa, x2 = 0.6422	0.4238 ± 0.0064
303.15 K, 101.32 kPa, x2 = 0.7089	0.4071 ± 0.0063
303.15 K, 101.32 kPa, x2 = 0.7814	0.3824 ± 0.0061
303.15 K, 101.32 kPa, x2 = 0.8363	0.3654 ± 0.0059
303.15 K, 101.32 kPa, x2 = 0.9308	0.3451 ± 0.0058
308.15 K, 101 kPa, x2 = 0.0708	0.483 ± 0.005
308.15 K, 101 kPa, x2 = 0.1846	0.471 ± 0.005
308.15 K, 101 kPa, x2 = 0.3572	0.451 ± 0.005
308.15 K, 101 kPa, x2 = 0.4854	0.43 ± 0.005
308.15 K, 101 kPa, x2 = 0.5616	0.417 ± 0.005
308.15 K, 101 kPa, x2 = 0.6719	0.396 ± 0.004
308.15 K, 101 kPa, x2 = 0.775	0.37 ± 0.004
308.15 K, 101 kPa, x2 = 0.9121	0.341 ± 0.004
318.15 K, 101 kPa, x2 = 0.0708	0.443 ± 0.005
318.15 K, 101 kPa, x2 = 0.1846	0.431 ± 0.005
318.15 K, 101 kPa, x2 = 0.3572	0.413 ± 0.005
318.15 K, 101 kPa, x2 = 0.4854	0.393 ± 0.004
318.15 K, 101 kPa, x2 = 0.5616	0.384 ± 0.004
318.15 K, 101 kPa, x2 = 0.6719	0.364 ± 0.004
318.15 K, 101 kPa, x2 = 0.775	0.342 ± 0.004
318.15 K, 101 kPa, x2 = 0.9121	0.315 ± 0.004
